Assay results as given in publication PMC8342488, “Characterization of a triad of genes in cyanophage S-2L sufficient to replace adenine by 2-aminoadenine in bacterial DNA” (Nature Communications, 2021).

Experiments:
S-2L PurZ [1] = target: T1, S-2L PurZ (Cyanophage S-2L, UniProt A0A7U3TBV6); assay: HPLC product analysis; assay type: biochemical; conditions: dGMP, 10 mM aspartate, 5 mM MgSO4, pH 7.5, 37 °C
T1 construct: E. coli codon-optimized synthetic gene, N-terminal 14-His tag removed by TEV, expressed in E. coli; dimer

S-2L MazZ [2] = target: T2, S-2L MazZ (Cyanophage S-2L, UniProt A0A7U3TBV3); assay: HPLC product analysis; assay type: biochemical; conditions: 100 uM nucleotide, 5 mM MgCl2, pH 7.5, 37 °C
T2 construct: gene S2L_23; E. coli codon-optimized synthetic gene, N-terminal 14-His tag removed by TEV, expressed in E. coli; homotetramer

S-2L PurZ [3] = target: T1, S-2L PurZ; assay: X-ray crystal structure, […] Å; assay type: binding; conditions: co-crystallised with dGMP, soaked with dATP; pH 7
S-2L MazZ [4] = target: T2, S-2L MazZ; assay: X-ray crystal structure, […] Å; assay type: binding; conditions: crystallised with dGTP; dephosphorylation product dGDP; three Mn2+ ions; pH 8.5
[5] = target: S-2L MazZ (MazG-like (d)GTP-specific nucleotide diphosphohydrolase of cyanophage S-2L) (cyanophage S-2L); assay: crystal structure; S-2L MazZ with the dGTP dephosphorylation product (dGDP) and Mn2+, 1.43 Å; crystals grown at 18 °C in 200 mM Li2SO4, 1.26 M (NH4)2SO4, 100 mM Tris pH 8.5; tetramer in the asymmetric unit
[6] = target: the molecule itself; assay: crystal structure; S-2L PurZ with dGMP and dATP, 1.7 Å; crystals grown at 4 °C in 15% Tacsimate, 2% PEG 3350, 100 mM HEPES pH 7; dimer reconstructed through crystallographic symmetry

Molecule: Nc1ncnc2c1ncn2[C@@H]1O[C@H](COP(=O)(O)OP(=O)(O)OP(=O)(O)O)[C@@H](O)[C@H]1O [ATP]
- HPLC product analysis (S-2L PurZ [1]; 2 mM nucleotides): it can act as a dATPase, but stays functional after dATP pool depletion by using ATP

Molecule: Nc1nc2c(ncn2[C@@H]2O[C@H](COP(=O)(O)OP(=O)(O)OP(=O)(O)O)[C@@H](O)[C@H]2O)c(=O)[nH]1 [GTP]
- HPLC product analysis (S-2L MazZ [2]): Its preferential substrates, dGTP and GTP, are rapidly dephosphorylated to dGMP and GMP

Molecule: N[C@@H](CC(=O)O)C(=O)O [aspartic acid]
- HPLC product analysis (S-2L PurZ [1]; dATP/ATP): reaction catalyzed by PurZ in presence of dGMP, Asp and dATP/ATP

Molecule: Nc1ncnc2c1ncn2[C@H]1C[C@H](O)[C@@H](COP(=O)(O)OP(=O)(O)OP(=O)(O)O)O1 [dATP]
- X-ray crystal structure, 1.7 Å (S-2L PurZ [3]): We crystallized S-2L PurZ with two of its substrates, dGMP and dATP

Molecule: Nc1nc2c(ncn2[C@H]2C[C@H](O)[C@@H](COP(=O)(O)OP(=O)(O)O)O2)c(=O)[nH]1 [dGDP]
- X-ray crystal structure, 1.43 Å (S-2L MazZ [4]): The dGDP intermediate observed in crystallo is almost completely buried inside the enzyme

Molecule: Nc1nc2c(ncn2[C@H]2C[C@H](O)[C@@H](COP(=O)(O)O)O2)c(=O)[nH]1 [dGMP]
- X-ray crystal structure, 1.7 Å (S-2L PurZ [3]): We crystallized S-2L PurZ with two of its substrates, dGMP and dATP

Molecule: Nc1nc2c(ncn2[C@H]2C[C@H](O)[C@@H](COP(=O)(O)OP(=O)(O)OP(=O)(O)O)O2)c(=O)[nH]1 [dGTP]
- HPLC product analysis (S-2L MazZ [2]): Its preferential substrates, dGTP and GTP, are rapidly dephosphorylated to dGMP and GMP

Molecule: S-2L MazZ (MazG-like (d)GTP-specific nucleotide diphosphohydrolase of cyanophage S-2L) (enzyme)
- stoichiometry N [5]: 4

B1: S-2L PurZ (homologue of adenylosuccinate synthetase of cyanophage S-2L) (enzyme)
chain: MLSIPPYYRVKNCNLIVDCQYGSTGKGLLAGYLGALEAPQVLCMAPSPNAGHTLVEEDGTARVHKMLPLGITSPSLERIYLGPGSVIDMDRLLEEYLALPRQVELWVHQNAAVVLQEHRDEEAAGGLAPGSTRSGAGSAFIAKIRRRPGTLLFGEAVRDHPLHGVVRVVDTRTAQDMLFRTRSIQAEGCQGYSLSVHHGAYPYCTARDVTTAQLIADCGLPYDVARIARVVGSMRTYPIRVANRPEAGEWSGPCYPDSVECQFADLGLEQEYTTVTKLPRRIFTFSAIQAHEAIAQNGVDEVFLNFAQYPPSLGALEDILDAIEARAEVTYVGFGPKVTDVYHTPTRAELEGLYARYRR
notes: PurZ of cyanophage S-2L, product of the gene purZ; synthetic gene optimised for E. coli; Crystallised with dGMP and soaked with dATP; The dimer is made by crystallographic symmetry; source: E. coli BL21-CodonPlus (DE3)-RIPL, purified (Ni-NTA, TEV cleavage, Superdex 200); not shown: His14, N-terminal, cleaved
- stoichiometry N [6]: 2
